For six compounds, activity results are on record in publication PMC8508980, “Design, Synthesis and Anticancer Profile of New 4-(1H-benzo[d]imidazol-1-yl)pyrimidin-2-amine-Linked Sulfonamide Derivatives with V600EBRAF Inhibitory Effect” (International Journal of Molecular Sciences, 2021).

What all share (assay): NCI 60 cell line screen
Common to all, as to type: cell-based

One test relates to NCI-H322M. Particulars: Homo sapiens, Non-Small Cell Lung Cancer, read-out: Percent growth. Put shortly: (§1)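 Cells seeded, incubated 24 h, then a time-zero plate fixed with TCA. Drug added at five concentrations up to 10 µM for 48 h at 37 °C. Cells fixed with TCA (16% for suspension lines), stained with SRB, absorbance read at 515 nm.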
The test system of another test is ACHN. Particulars: Homo sapiens, Renal Cancer, read-out: Percent growth. Put shortly:
as §1

A further test concerns HS 578T. Particulars: Homo sapiens, Breast Cancer, read-out: Percent growth. Put shortly: as §1
For a further test, the system named is DU-145. As to conditions: Homo sapiens; DU-145, Prostate Cancer; read-out: Percent growth. A digest of the protocol: as §1
A further test deals with SW-620. Particulars: Homo sapiens; SW-620, Colon Cancer; read-out: Percent growth. A digest of the protocol: as §1
A further test concerns SF-268. As to conditions: Homo sapiens; SF-268, CNS-Cancer; read-out: Percent growth. Put shortly: as §1
The next test has as its system HCT-116. As to conditions: Homo sapiens; HCT-116, Colon Cancer; read-out: Percent growth. Put shortly: as §1
The next test concerns SK-OV-3. As to conditions: Homo sapiens; SK-OV-3, Ovarian Cancer; read-out: Percent growth. Put shortly: as §1
The test system of the next test is MDA-MB-231/ATCC. As to conditions: Homo sapiens, Breast Cancer, read-out: Percent growth. A digest of the protocol:
as §1

In another test the test system is SK-MEL-2. Particulars: Homo sapiens; SK-MEL-2, Melanoma; read-out: Percent growth. Put shortly: as §1
The next test deals with MALME-3M. Particulars: Homo sapiens, Melanoma, read-out: Percent growth. A digest of the protocol:
as §1

The next test relates to UACC-62. As to conditions: Homo sapiens; UACC-62, Melanoma; read-out: Percent growth. A digest of the protocol:
(§2)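 Read-out was SRB staining of TCA-fixed cells at 515 nm, with growth computed against time-zero (Tz) and untreated control plates; TGI was taken where Ti = Tz. Drugs were tested at five concentrations up to 10 µM for 48 h at 37 °C, added 24 h after plating in RPMI 1640/5% FBS.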

A further test relates to SNB-19. Particulars: Homo sapiens; SNB-19, CNS-Cancer; read-out: Percent growth. A digest of the protocol:
as §1

The test system of another test is IGROV1. As to conditions: Homo sapiens, IGROV-1; IGROV1, Ovarian Cancer; read-out: Percent growth. Put shortly: as §1
For another test, the system named is SN12C. As to conditions: Homo sapiens, Renal Cancer, read-out: Percent growth. A digest of the protocol: as §1
In the next test the test system is MCF7. Particulars: Homo sapiens; MCF7, Breast Cancer; read-out: Percent growth. A digest of the protocol: as §1
For another test, the system named is SF-539. Particulars: Homo sapiens; SF-539, CNS-Cancer; read-out: Percent growth. A digest of the protocol:
as §1

The test system of a further test is BT-549. Particulars: Homo sapiens; BT-549, Breast Cancer; read-out: Percent growth. Put shortly:
as §1

The test system of the next test is HL-60(TB). As to conditions: Homo sapiens, Leukemia, read-out: Percent growth. Put shortly:
as §2

A further test has as its system TK-10. Particulars: Homo sapiens; TK-10, Renal Cancer; read-out: Percent growth. A digest of the protocol:
as §1

Another test deals with HOP-62. Particulars: Homo sapiens; HOP-62, Non-Small Cell Lung Cancer; read-out: Percent growth. Put shortly:
as §2

Another test relates to OVCAR-5. As to conditions: Homo sapiens; OVCAR-5, Ovarian Cancer; read-out: Percent growth. Put shortly: as §1
The test system of another test is A498. Particulars: Homo sapiens; A498, Renal Cancer; read-out: Percent growth. A digest of the protocol:
as §1

Take `O=S(=O)(NCCNc1nccc(-n2cnc3ccccc32)n1)c1ccccc1` [12a, N-(2-((4-(1H-benzo [d]imidazol-1-yl)pyrimidin-2-yl)amino)ethyl)benzenesulfonamide]: the activity at 10 µM with NCI-H322M was 94.9%; in the test with ACHN it was 94.2%; with HS 578T it was 93.5%; with DU-145 it was 109%; in the test on SW-620, 112%; with SF-268, 94.1%. Moreover, the activity at 10 µM was found to be 94.6% in the test with HCT-116; 101% with SK-OV-3; 87.6% in the test on MDA-MB-231/ATCC; 115% with SK-MEL-2; 101% with MALME-3M; 78.3% in the test on UACC-62. Also, the activity at 10 µM in the test with SNB-19 was 99.6%; with IGROV1 it was 89.9%; with SN12C it was 85.1%; in the test with MCF7, 89.3%; with SF-539, 96.1%; in the test on BT-549, 106%. For the same compound, the activity at 10 µM worked out at 113% in the test with HL-60(TB); 104% in the test on TK-10; 90.7% in the test with HOP-62; 92.5% in the test with OVCAR-5; 88.6% in the test with A498.
Turning to `O=S(=O)(NCCNc1nccc(-n2cnc3ccccc32)n1)c1ccc(F)cc1` [12b, N-(2-((4-(1H-benzo [d]imidazol-1-yl)pyrimidin-2-yl)amino)ethyl)-4-fluorobenzenesulfonamide], the activity at 10 µM in the test on NCI-H322M worked out at 95.6%; in the test with ACHN, 88.3%; in the test with HS 578T, 85.5%; in the test on DU-145 it was 91.5%; in the test on SW-620, 100%; in the test with SF-268, 88.2%. The activity at 10 µM in the test with HCT-116 was 83.6%; in the test with SK-OV-3, 102%; with MDA-MB-231/ATCC, 81.8%; in the test with SK-MEL-2 it was 101%; with MALME-3M it was 93.7%; in the test on UACC-62, 71.3%. Further, the activity at 10 µM in the test on SNB-19 worked out at 93%; in the test with IGROV1, 89.3%; in the test with SN12C, 89.7%; in the test on MCF7 it was 87.7%; with SF-539, 83.7%; with BT-549, 82.2%. Further, the activity at 10 µM with HL-60(TB) turned out to be 106%; with TK-10, 97.8%; in the test with HOP-62, 90.9%; with OVCAR-5, 86.6%; with A498 it was 80.7%.
Consider `O=S(=O)(NCCNc1nccc(-n2cnc3ccccc32)n1)c1ccc(Cl)cc1` [12c, N-(2-((4-(1H-benzo [d]imidazol-1-yl)pyrimidin-2-yl)amino)ethyl)-4-chlorobenzenesulfonamide], for which the activity at 10 µM in the test with NCI-H322M was determined as 95.3%; with ACHN, 96.4%; with HS 578T, 88.1%; in the test on DU-145 it was 104%; with SW-620 it was 100%; in the test on SF-268 it was 92.3%. Besides, the activity at 10 µM in the test on HCT-116 was 94.6%; with SK-OV-3, 112%; with MDA-MB-231/ATCC it was 90.5%; with SK-MEL-2, 109%; in the test with MALME-3M, 99.5%; with UACC-62, 86.4%. The activity at 10 µM with SNB-19 came out at 97.7%; with IGROV1 it was 98.2%; in the test with SN12C, 96.6%; in the test on MCF7, 87.9%; in the test with SF-539, 91.2%; in the test with BT-549, 99.3%. Besides, the activity at 10 µM in the test with HL-60(TB) came out at 113%; in the test with TK-10, 101%; in the test on HOP-62, 95.4%; with OVCAR-5 it was 91.7%; in the test with A498, 84.8%.
Regarding `O=S(=O)(NCCNc1nccc(-n2cnc3ccccc32)n1)c1ccc(Br)cc1` [12d, N-(2-((4-(1H-benzo [d]imidazol-1-yl)pyrimidin-2-yl)amino)ethyl)-4-bromobenzenesulfonamide], the activity at 10 µM in the test with NCI-H322M was 107%; in the test on ACHN it was 93.6%; with HS 578T, 85.7%; in the test with DU-145 it was 99.9%; in the test on SW-620, 110%; in the test on SF-268 it was 91.2%. Besides, the activity at 10 µM in the test with HCT-116 is 99.8%; in the test with SK-OV-3, 99.9%; in the test with MDA-MB-231/ATCC, 88.2%; with SK-MEL-2 it was 108%; in the test on MALME-3M it was 103%; in the test on UACC-62 it was 82.8%. The activity at 10 µM in the test on SNB-19 worked out at 101%; with IGROV1 it was 90.7%; in the test with SN12C it was 91.5%; in the test on MCF7, 78.4%; in the test on SF-539, 96.2%; with BT-549, 115%. Besides, the activity at 10 µM was 114% with HL-60(TB); 103% in the test with TK-10; 87.2% in the test on HOP-62; 94% in the test on OVCAR-5; 76.3% in the test on A498.
With `O=S(=O)(NCCNc1nccc(-n2cnc3ccccc32)n1)c1ccc(C(F)(F)F)cc1` [12e, N-(2-((4-(1H-benzo [d]imidazol-1-yl)pyrimidin-2-yl)amino)ethyl)-4-(trifluoromethyl)benzenesulfonamide], the activity at 10 µM with NCI-H322M stood at 85.3%; with ACHN, 60.8%; with HS 578T, 42.9%; in the test on DU-145, 71.8%; in the test on SW-620, 83.5%; in the test with SF-268, 59.5%. The activity at 10 µM was 40.1% in the test on HCT-116; 62.2% in the test with SK-OV-3; 64% in the test on MDA-MB-231/ATCC; 67.8% in the test on SK-MEL-2; 71.4% in the test with MALME-3M; 42.4% in the test on UACC-62. Further, the activity at 10 µM in the test with SNB-19 came to 69.8%; in the test on IGROV1, 66.4%; in the test with SN12C it was 72.5%; in the test on MCF7 it was 34.9%; in the test with SF-539 it was 64.8%; in the test with BT-549, 53.1%. The activity at 10 µM was found to be 73.8% with HL-60(TB); 63.4% in the test on TK-10; 66.1% in the test on HOP-62; 86.2% in the test with OVCAR-5; 56.6% in the test with A498.
With `COc1ccc(S(=O)(=O)NCCNc2nccc(-n3cnc4ccccc43)n2)cc1` [12f, N-(2-((4-(1H-benzo [d]imidazol-1-yl)pyrimidin-2-yl)amino)ethyl)-4-methoxy benzenesulfonamide], the activity at 10 µM in the test with NCI-H322M was 92.6%; in the test on ACHN, 97.1%; with HS 578T, 84.1%; in the test on DU-145, 99.9%; in the test on SW-620, 103%; in the test with SF-268 it was 86.7%. The activity at 10 µM with HCT-116 was 98%; with SK-OV-3 it was 97.5%; in the test on MDA-MB-231/ATCC, 92.1%; in the test on SK-MEL-2, 106%; with MALME-3M it was 91.7%; in the test on UACC-62, 76.6%. The activity at 10 µM with SNB-19 worked out at 95.3%; with IGROV1, 89%; in the test on SN12C, 88.5%; in the test with MCF7, 86.2%; in the test on SF-539, 96.2%; in the test on BT-549 it was 97.8%. Moreover, the activity at 10 µM was 106% in the test with HL-60(TB); 92.5% in the test on TK-10; 94.6% in the test on HOP-62; 93.9% in the test on OVCAR-5; 82.9% in the test on A498.
